22 compounds from patent US20260042764A1, “COMPOSITIONS AND METHODS FOR INHIBITION OF KRAS” (TheRas, Inc., priority 2022, published 2026) can be followed below.

Test [1] concerns the target T1, Avi-KRAS G12V (1-169) GppNHp/RAF1 RBD-3xFLAG (52-151) (Homo sapiens, UniProt P01116, G12V).
T1 construct: Avi-KRAS G12V (1-169)
The test is described as follows: Raf1-KRAS G12V-GppNHP disruption HTRF assay (Biological Example 1). Format: binding. The settings on record: KRAS G12V, GppNHp-loaded; Table 11. The method in brief: (§1)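 Protein mix, 1 h RT, 700 rpm; reagent mix, 1 h RT, 700 rpm; HTRF read. Buffer Tris pH 7.5/NaCl/MgCl2/BSA/Tween, 10% DMSO. Output % activity, DMSO = 100%.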
(In TR-FRET formats the signal depends on donor and acceptor labels being close together.)

Test [2] deals with T2, Avi-KRAS WT (1-169) GppNHp/RAF1 RBD-3xFLAG (52-151) (Homo sapiens, UniProt P01116).
T2 construct: Avi-KRAS WT (1-169)
T2 sequence (P01116 1-169 isoform P01116-2): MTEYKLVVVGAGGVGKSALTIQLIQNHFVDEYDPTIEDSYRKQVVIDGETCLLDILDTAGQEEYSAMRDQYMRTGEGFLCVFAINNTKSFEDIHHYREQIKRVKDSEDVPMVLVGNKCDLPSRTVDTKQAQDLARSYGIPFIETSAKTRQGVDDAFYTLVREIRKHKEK
The test is described as follows: Raf1-KRAS WT-GppNHP disruption HTRF assay (Biological Example 1). The test is classed as binding. The settings on record: KRAS WT, GppNHp-loaded; Table 11. The method in brief:
as §1

Test [3] concerns the target T3, Avi-KRAS G12R (1-169) GppNHp/RAF1 RBD-3xFLAG (52-151) (Homo sapiens, UniProt P01116, G12R).
T3 construct: Avi-KRAS G12R (1-169)
Nature of the test: Raf1-KRAS G12R-GppNHP disruption HTRF assay (Biological Example 1). Format: binding. The settings on record: KRAS G12R, GppNHp-loaded; Table 11. The method in brief:
as §1

Test [4] concerns the target T4, Avi-KRAS G12D (1-169) GppNHp/RAF1 RBD-3xFLAG (52-151) (Homo sapiens, UniProt P01116, G12D).
T4 construct: Avi-KRAS G12D (1-169)
The test is described as follows: Raf1-KRAS G12D-GppNHP disruption HTRF assay (Biological Example 1). The settings on record: KRAS G12D, GppNHp-loaded; Table 11. Format: binding. The method, boiled down: as §1

The test system of test [5] is GP2d cells (KRAS G12D). The test is described as follows: Cell-based pERK HTRF assay in GP2d cell (Biological Example 2). The settings on record: GP2d (KRAS G12D) cells, pERK HTRF. The method in brief:
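Phospho-ERK is measured by HTRF following a 60 min compound exposure at 0.25% DMSO, with a 9-point half-log curve topping at 1 μM or 100 nM.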

Some results are limits rather than exact numbers.

T4 sequence (P01116 1-169 isoform P01116-2 G12D): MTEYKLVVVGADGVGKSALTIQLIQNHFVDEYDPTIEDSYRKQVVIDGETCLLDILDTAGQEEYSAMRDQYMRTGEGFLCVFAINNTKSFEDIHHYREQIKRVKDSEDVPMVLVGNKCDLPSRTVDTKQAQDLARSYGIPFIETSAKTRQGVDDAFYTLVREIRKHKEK
T3 sequence (P01116 1-169 isoform P01116-2 G12R): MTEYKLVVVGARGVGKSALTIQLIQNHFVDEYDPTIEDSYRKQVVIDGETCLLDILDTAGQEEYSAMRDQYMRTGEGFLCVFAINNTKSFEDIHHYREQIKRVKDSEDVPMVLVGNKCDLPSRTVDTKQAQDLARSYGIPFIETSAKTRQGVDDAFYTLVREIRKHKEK
T1 sequence (P01116 1-169 isoform P01116-2 G12V): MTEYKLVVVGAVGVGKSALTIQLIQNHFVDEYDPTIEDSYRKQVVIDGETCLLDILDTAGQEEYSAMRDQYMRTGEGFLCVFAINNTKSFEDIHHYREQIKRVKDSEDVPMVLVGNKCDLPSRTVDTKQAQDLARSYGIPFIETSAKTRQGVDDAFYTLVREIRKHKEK

For the compound `CN(CCCO)c1nc(OC[C@@]23CCCN2C[C@H](F)C3)nc2c(F)c(-c3ccc(F)c4sc(N)c(C#N)c34)c(C(F)(F)F)cc12` [Compound 73], the IC50 in test [1] is 100 to 1000 nM; in test [2], 100 to 1000 nM; in test [3] it was 100 to 1000 nM; in test [4], 100 to 1000 nM; in test [5] (GP2d), below 100 nM.
As for `CN(c1nc(OC[C@@]23CCCN2C[C@H](F)C3)nc2c(F)c(-c3ccc(F)c4sc(N)c(C#N)c34)c(C(F)(F)F)cc12)[C@@H]1CCN(S(C)(=O)=O)C1` [Compound 95], the IC50 in test [1] was 100 to 1000 nM; in test [2] it was 100 to 1000 nM; in test [3] it was 100 to 1000 nM; in test [4] it was 100 to 1000 nM; in test [5], below 100 nM.
In the case of `C[C@@H]1CN(c2nc(OC[C@@]34CCCN3C[C@H](F)C4)nc3c(F)c(-c4ccc(F)c5sc(N)c(C#N)c45)c(C(F)(F)F)cc23)[C@@H](C)CO1` [Compound 140], the IC50 in test [1] is 1000 to 10000 nM; in test [2], 1000 to 10000 nM; in test [3] it was 1000 to 10000 nM; in test [4] it was 100 to 1000 nM; in test [5] (GP2d), below 100 nM.
As for `N#Cc1c(N)sc2c(F)ccc(-c3c(C(F)(F)F)cc4c(N5CCOCC5)nc(OC[C@@]56CCCN5C[C@H](F)C6)nc4c3F)c12` [Compound 90], the half-maximal inhibitory concentration (IC50) in test [1] is 100 to 1000 nM; in test [2] it was 100 to 1000 nM; in test [3], 100 to 1000 nM; in test [4], 100 to 1000 nM; in test [5] (GP2d), below 100 nM.
On to `CCN(CC)c1nc(OC[C@@]23CCCN2C[C@H](F)C3)nc2c(F)c(-c3ccc(F)c4sc(N)c(C#N)c34)c(C(F)(F)F)cc12` [Compound 152], for which the IC50 in test [1] is 100 to 1000 nM; in test [2], 100 to 1000 nM; in test [3] it was 100 to 1000 nM; in test [4], below 100 nM; in test [5] (GP2d), below 100 nM.
In the case of `CN(c1nc(OC[C@@]23CCCN2C[C@H](F)C3)nc2cc(-c3ccc(F)c4sc(N)c(C#N)c34)c(C#N)cc12)[C@H]1C[C@@H](O)C1` [Compound 29], the IC50 is 1000 to 10000 nM in test [1]; 1000 to 10000 nM in test [2]; 1000 to 10000 nM in test [3]; 1000 to 10000 nM in test [4]; 100 to 1000 nM in test [5] (GP2d).
As for `CN(c1nc(OC[C@@]23CCCN2C[C@H](F)C3)nc2c(F)c(-c3ccc(F)c4sc(N)c(C#N)c34)c(C(F)(F)F)cc12)[C@H]1CCN(S(C)(=O)=O)C1` [Compound 119], the IC50 was 1000 to 10000 nM in test [1]; 100 to 1000 nM in test [2]; 1000 to 10000 nM in test [3]; 1000 to 10000 nM in test [4]; below 100 nM in test [5] (GP2d).
Take `N#Cc1c(N)sc2c(F)ccc(-c3c(C(F)(F)F)cc4c(N5CCN(C(=O)CO)CC5)nc(OC[C@@]56CCCN5C[C@H](F)C6)nc4c3F)c12` [Compound 101]: the IC50 in test [1] was 1000 to 10000 nM; in test [2], 100 to 1000 nM; in test [3], 100 to 1000 nM; in test [4], 100 to 1000 nM; in test [5] (GP2d), below 100 nM.
On to `CN1CCC[C@H]1COc1nc(N(C)[C@H]2C[C@@H](O)C2)c2cc(C(F)(F)F)c(-c3ccc(F)c4sc(N)c(C#N)c34)c(F)c2n1` [Compound 35], for which the IC50 was 100 to 1000 nM in test [1]; 100 to 1000 nM in test [2]; 100 to 1000 nM in test [3]; 100 to 1000 nM in test [4]; below 100 nM in test [5] (GP2d).
Take `C[C@@H]1CN(c2nc(OC[C@@]34CCCN3C[C@H](F)C4)nc3c(F)c(-c4ccc(F)c5sc(N)c(C#N)c45)c(C(F)(F)F)cc23)C[C@H](C)O1` [Compound 143]: the IC50 in test [1] was 1000 to 10000 nM; in test [2], 100 to 1000 nM; in test [3], 1000 to 10000 nM; in test [4] it was 100 to 1000 nM; in test [5] (GP2d), 100 to 1000 nM.
As for `N#Cc1c(N)sc2c(F)ccc(-c3c(C(F)(F)F)cc4c(N5CCCC5)nc(OC[C@@]56CCCN5C[C@H](F)C6)nc4c3F)c12` [Compound 156], the IC50 in test [1] is 100 to 1000 nM; in test [2], 100 to 1000 nM; in test [3], 100 to 1000 nM; in test [4], 100 to 1000 nM; in test [5] (GP2d), below 100 nM.
In the case of `CN(c1nc(OC[C@@]23CCCN2C[C@H](F)C3)nc2c(F)c(-c3ccc(F)c4sc(N)c(C#N)c34)c(C(F)(F)F)cc12)[C@@H]1C[C@H](O)[C@H]1CC#N` [Compound 182], the IC50 in test [1] was 100 to 1000 nM; in test [2] it was 100 to 1000 nM; in test [3], 100 to 1000 nM; in test [4], 100 to 1000 nM; in test [5] (GP2d), below 100 nM.
For `N#Cc1c(N)sc2c(F)ccc(-c3c(C(F)(F)F)cc4c(N5CCN(CCO)C(=O)C5)nc(OC[C@@]56CCCN5C[C@H](F)C6)nc4c3F)c12` [Compound 121], the IC50 in test [1], in test [2], in test [3], in test [4] and in test [5] (GP2d) was 100 to 1000 nM throughout.
On to `N#Cc1c(N)sc2c(F)ccc(-c3c(C(F)(F)F)cc4c(N5CC[C@H]5CO)nc(OC[C@@]56CCCN5C[C@H](F)C6)nc4c3F)c12` [Compound 169], for which the IC50 is 100 to 1000 nM in test [1]; 100 to 1000 nM in test [2]; 100 to 1000 nM in test [3]; 100 to 1000 nM in test [4]; below 100 nM in test [5] (GP2d).
With `CCN(c1nc(OC[C@@]23CCCN2C[C@H](F)C3)nc2c(F)c(-c3ccc(F)c4sc(N)c(C#N)c34)c(C(F)(F)F)cc12)[C@H]1C[C@@H](O)C1` [Compound 26, 2-amino-4-[4-[ethyl-(3-hydroxycyclobutyl)amino]-8-fluoro-2-[[(2R,8S)-2-fluoro-1,2,3,5,6,7-hexahydropyrrolizin-8-yl]methoxy]-6-(trifluoromethyl)quinazolin-7-yl]-7-fluoro-benzothiophene-3-carbonitrile], the IC50 in test [1] is 100 to 1000 nM; in test [2], 100 to 1000 nM; in test [3], 100 to 1000 nM; in test [4], below 100 nM; in test [5] (GP2d), below 100 nM.
Take `CN(c1nc(OC[C@@]23CCCN2C[C@H](F)C3)nc2c(F)c(-c3ccc(F)c4sc(N)c(C#N)c34)ccc12)[C@H]1C[C@@H](O)C1` [Compound 28]: the IC50 lay in the range of 1000 to 10000 nM in test [1]; 100 to 1000 nM in test [2]; 1000 to 10000 nM in test [3]; 100 to 1000 nM in test [4]; 100 to 1000 nM in test [5] (GP2d).
As for `CN(c1nc(OC[C@@]23CCCN2C[C@H](F)C3)nc2c(F)c(-c3ccc(F)c4sc(N)c(C#N)c34)c(C(F)(F)F)cc12)[C@H]1CCC[C@@H]1CO` [Compound 86], the IC50 in test [1] is 1000 to 10000 nM; in test [2], 1000 to 10000 nM; in test [3], 100 to 1000 nM; in test [4] it was 100 to 1000 nM; in test [5] (GP2d), below 100 nM.
Turning to `COC[C@@H]1[C@H](N(C)c2nc(OC[C@@]34CCCN3C[C@H](F)C4)nc3c(F)c(-c4ccc(F)c5sc(N)c(C#N)c45)c(C(F)(F)F)cc23)CCN1C(C)=O` [Compound 117], the IC50 in test [1] is 100 to 1000 nM; in test [2] it was 100 to 1000 nM; in test [3], 100 to 1000 nM; in test [4], 100 to 1000 nM; in test [5] (GP2d), below 100 nM.
For the compound `N#Cc1c(N)sc2c(F)ccc(-c3c(C(F)(F)F)cc4c(N5CC6CCC(C5)C6O)nc(OC[C@@]56CCCN5C[C@H](F)C6)nc4c3F)c12` (some centres unmarked) [Compound 128], the IC50 in test [1] is 1000 to 10000 nM; in test [2] it was 100 to 1000 nM; in test [3], 100 to 1000 nM; in test [4], 100 to 1000 nM; in test [5] (GP2d) it was below 100 nM.
With `CN(c1nc(OC[C@@]23CCCN2C[C@H](F)C3)nc2c(F)c(-c3ccc(F)c4sc(N)c(C#N)c34)c(C(F)(F)F)cc12)[C@@H]1CCOC1` [Compound 132], the IC50 is 100 to 1000 nM in test [1]; 100 to 1000 nM in test [2]; 100 to 1000 nM in test [3]; 100 to 1000 nM in test [4]; below 100 nM in test [5] (GP2d).
For `C[C@@H]1CN(c2nc(OC[C@@]34CCCN3C[C@H](F)C4)nc3c(F)c(-c4ccc(F)c5sc(N)c(C#N)c45)c(C(F)(F)F)cc23)CCO1` [Compound 141], the IC50 was 1000 to 10000 nM in test [1]; 100 to 1000 nM in test [2]; 100 to 1000 nM in test [3]; 100 to 1000 nM in test [4]; below 100 nM in test [5] (GP2d).
`CN(c1nc(OC[C@@]23CCCN2C[C@H](F)C3)nc2c(F)c(-c3ccc(F)c4sc(N)c(C#N)c34)c(C(F)(F)F)cc12)[C@H]1CCS(=O)(=O)C1` [Compound 94, 2-amino-4-(4-(((S)-1,1-dioxidotetrahydrothiophen-3-yl)(methyl)amino)-8-fluoro-2-(((2R,7aS)-2-fluorotetrahydro-1H-pyrrolizin-7a(5H)-yl)methoxy)-6-(trifluoromethyl)quinazolin-7-yl)-7-fluorobenzo[b]thiophene-3-carbonitrile]: the 50% inhibitory concentration (IC50) in test [1] was 100 to 1000 nM; in test [2] it was 100 to 1000 nM; in test [3] it was 100 to 1000 nM; in test [4] it was 100 to 1000 nM; in test [5] (GP2d), below 100 nM.

The term IC50 denotes the point on the concentration scale where inhibition reaches its midpoint. Low readings indicate greater potency, high ones weaker potency.
